# Results: PubChem BioAssay AID1919009 (Molecular Pharmacology Branch, DTP, NCI, 2023)
# Tested on: K24384-001-R-PDC complex spheroid growth
# Test: Anticancer human tumor K24384-001-R-PDC patient-derived pancreatic adenocarcinoma cell line growth inhibition [AhR]
# Conditions: for IC50: curve of first compound; for viability, T/C: stronger effect = lower value
# Method in brief: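 Spheroids combined tumor cells with HUVEC endothelial cells and human MSCs as stroma. AhR antagonists were paired with standard or investigational drugs, each dosed in half-log steps down from near clinical Cmax, or from 10 microM where Cmax was unknown.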
# [1] = second compound 0.1 µM, first compound 0.0316 µM
# [2] = second compound 0.1 µM, first compound 0.1 µM
# [3] = second compound 0.1 µM, first compound 0.316 µM
# [4] = second compound 0.1 µM, first compound 1 µM
# [5] = second compound 0.316 µM, first compound 0.0316 µM
# [6] = second compound 0.316 µM, first compound 0.1 µM
# [7] = second compound 0.316 µM, first compound 0.316 µM
# [8] = second compound 0.316 µM, first compound 1 µM
# [9] = second compound 1 µM, first compound 0.0316 µM
# [10] = second compound 1 µM, first compound 0.1 µM
# [11] = second compound 1 µM, first compound 0.316 µM
# [12] = second compound 1 µM, first compound 1 µM
# [13] = second compound 3.16 µM, first compound 0.0316 µM
# [14] = second compound 3.16 µM, first compound 0.1 µM
# [15] = second compound 3.16 µM, first compound 0.316 µM
# [16] = second compound 3.16 µM, first compound 1 µM
# [17] = second compound 10 µM, first compound 0.0316 µM
# [18] = second compound 10 µM, first compound 0.1 µM
# [19] = second compound 10 µM, first compound 0.316 µM
# [20] = second compound 10 µM, first compound 1 µM
# 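Throughout, for viability, T/C: percent of DMSO vehicle-treated spheroid viability set as 100%.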
smiles,measurement,setting,value
CC1COCCN1c1cc(-c2ccnn2C)c2ccnc(-c3ccn[nH]3)c2n1 (stereo not given) + CC(CO)NC(=O)c1cc(-c2ccc(Cl)cc2)nn(-c2cnn(C)c2)c1=O,IC50,second compound 0.1 µM,115 nM
same,IC50,second compound 0.316 µM,91 nM
same,IC50,second compound 1 µM,94.7 nM
same,IC50,second compound 3.16 µM,54.6 nM
same,IC50,second compound 10 µM,52.5 nM
same,"viability, T/C","second compound 0.1 µM, first compound 0.00316 µM",105%
same,"viability, T/C","second compound 0.1 µM, first compound 0.01 µM",93.7%
same,"viability, T/C",[1],80.8%
same,"viability, T/C",[2],51.7%
same,"viability, T/C",[3],33%
same,"viability, T/C",[4],26.4%
same,"viability, T/C","second compound 0.316 µM, first compound 0.00316 µM",111%
same,"viability, T/C","second compound 0.316 µM, first compound 0.01 µM",118%
same,"viability, T/C",[5],75.5%
same,"viability, T/C",[6],50.9%
same,"viability, T/C",[7],32.3%
same,"viability, T/C",[8],24.3%
same,"viability, T/C","second compound 1 µM, first compound 0.00316 µM",94%
same,"viability, T/C","second compound 1 µM, first compound 0.01 µM",121%
same,"viability, T/C",[9],86.4%
same,"viability, T/C",[10],49%
same,"viability, T/C",[11],28%
same,"viability, T/C",[12],21.3%
same,"viability, T/C","second compound 3.16 µM, first compound 0.00316 µM",73.1%
same,"viability, T/C","second compound 3.16 µM, first compound 0.01 µM",74.8%
same,"viability, T/C",[13],64.2%
same,"viability, T/C",[14],34.2%
same,"viability, T/C",[15],23.7%
same,"viability, T/C",[16],25.2%
same,"viability, T/C","second compound 10 µM, first compound 0.00316 µM",85.8%
same,"viability, T/C","second compound 10 µM, first compound 0.01 µM",79.2%
same,"viability, T/C",[17],60.1%
same,"viability, T/C",[18],37.7%
same,"viability, T/C",[19],27.2%
same,"viability, T/C",[20],28.4%
CC1COCCN1c1cc(C2(S(C)(=N)=O)CC2)nc(-c2ccnc3[nH]ccc23)n1 (stereo not given) + CC(CO)NC(=O)c1cc(-c2ccc(Cl)cc2)nn(-c2cnn(C)c2)c1=O,IC50,second compound 0.1 µM,> 10000 nM
same,IC50,second compound 0.316 µM,3120 nM
same,IC50,second compound 1 µM,9450 nM
same,IC50,second compound 3.16 µM,3590 nM
same,IC50,second compound 10 µM,> 10000 nM
same,"viability, T/C",[1],113%
same,"viability, T/C",[2],128%
same,"viability, T/C",[3],133%
same,"viability, T/C",[4],77.7%
same,"viability, T/C","second compound 0.1 µM, first compound 3.16 µM",55.8%
same,"viability, T/C","second compound 0.1 µM, first compound 10 µM",42.8%
same,"viability, T/C",[5],136%
same,"viability, T/C",[6],133%
same,"viability, T/C",[7],136%
same,"viability, T/C",[8],84.2%
same,"viability, T/C","second compound 0.316 µM, first compound 3.16 µM",52.7%
same,"viability, T/C","second compound 0.316 µM, first compound 10 µM",46.2%
same,"viability, T/C",[9],142%
same,"viability, T/C",[10],139%
same,"viability, T/C",[11],136%
same,"viability, T/C",[12],103%
same,"viability, T/C","second compound 1 µM, first compound 3.16 µM",66.5%
same,"viability, T/C","second compound 1 µM, first compound 10 µM",48.6%
same,"viability, T/C",[13],125%
same,"viability, T/C",[14],96.8%
same,"viability, T/C",[15],132%
same,"viability, T/C",[16],96.4%
same,"viability, T/C","second compound 3.16 µM, first compound 3.16 µM",53.1%
same,"viability, T/C","second compound 3.16 µM, first compound 10 µM",40.6%
same,"viability, T/C",[17],122%
same,"viability, T/C",[18],125%
same,"viability, T/C",[19],130%
same,"viability, T/C",[20],107%
same,"viability, T/C","second compound 10 µM, first compound 3.16 µM",64%
same,"viability, T/C","second compound 10 µM, first compound 10 µM",53.9%
